Literature values in patent EP3142678B1, “USE OF CRANBERRY PROANTHOCYANIDINS WITH HERBAL COMPONENTS FOR TREATING AND PREVENTING URINARY TRACT INFECTIONS” (Specchiasol S.r.l., priority 2014, dated 2015).
Read-outs that look alike come from different tables or passages of the source.

Tested on: slime-producing uropathogenic Escherichia coli strains
Details: for percentage of residual slime relative to the control: range over four strains; for reduced biofilms: fosfomycin 2000 mg/l

Structure (SMILES): CC(=O)N[C@@H](CS)C(=O)O [NAC, N-Acetylcysteine]
- percentage of residual slime relative to the control (0.007 mg/ml of NAC): 62.5-100%
- percentage of residual slime relative to the control (8 mg/ml of NAC): 26.2-64.1%
- remaining exopolysaccharide matrix, of the amount found with the untreated control (pre-formed biofilms, NAC at the highest concentrations used): 25-68%

Structure (SMILES): C[C@@H]1O[C@@H]1P(=O)(O)O [fosfomycin]
- reduced biofilms (initial (5 h) biofilms): 40-57%
- reduced biofilms (mature (48 h) biofilms): 41-49%
